Publication PMC7709957 (2020)

Test system: F. ulcerans ZTP riboswitch (pfl RNA, 75-nt aptamer domain, crystal construct) (RNA, riboswitch) UAUCAGUUAUAUGACUGACGGAACGUGGAAUUAACCACAUGAAGUAUAACGAUGACAAUGCCGACCGUCUGGGCG
Experiment: ITC
Conditions: 150 mM KCl, 10 mM MgCl2, 50 mM Hepes-KOH pH 7.4, 37 °C

| Structure (SMILES) | Kd [nM] | Kd (3% DMSO) [nM] |
| --- | --- | --- |
| NC(=O)c1ncn([C@@H]2O[C@H](CO)[C@@H](O)[C@H]2O)c1N | 2300 ± 600 | – |
| NC(=O)c1nc[nH]c1N | 41000 ± 4000 | – |
| NC(=O)c1ncn([C@@H]2O[C@H](COP(=O)(O)O)[C@@H](O)[C@H]2O)c1N | 320 ± 130 | – |
| NC(=O)c1ncn(-c2ccccn2)c1N | 5600 ± 3200 | – |
| NC(=O)c1ncn(-c2cccnc2)c1N | – | 600 ± 60 |
